From BindingDB's records for patent US9796704 (SYMPHONY EVOLUTION, INC., 2017)
Blank lines part the entries; values can stand above or below the compound they belong to.

Assays:
[1] = target: Vascular endothelial growth factor receptor 2 (Homo sapiens, UniProt P35968); assay: AlphaScreen Assay
Description: (§1) In AlphaScreen, when the donor and acceptor beads are close in proximity, a series of photochemical events will give rise to a fluorescent signal upon light activation. Here we use biotinylated poly-(Glu, Tyr) 4:1 as the kinase substrate, streptavidin-coated donor beads and anti-phosphortyrosine antibody PY100-coated acceptor beads. […] Compounds, ATP, biotinylated poly-(Glu, Tyr) and kinases are mixed in a volume of 20 μL for 1 hr at ambient temperature using Greiner 384-well white clear bottom medium binding plates. Then 10 uL solution containing 15-30 mg/mL AlphaScreen beads, 75 mM Hepes, pH 7.4, 300 mM NaCl, 120 mM EDTA, 0.3% BSA and 0.03% Tween-20 is added to each well. After 2-16 hr incubation of the beads, plates are read in a Perkin Elmer AlphaQuest reader (available from PerkinElmer Life and Analytical Sciences, Inc., of Boston Mass.).

Ephrin type-A receptor 2 = Ephrin type-A receptor 2 (Homo sapiens, UniProt P29317); assay: AlphaScreen Assay
Chain of Ephrin type-A receptor 2 (P29317 whole entry): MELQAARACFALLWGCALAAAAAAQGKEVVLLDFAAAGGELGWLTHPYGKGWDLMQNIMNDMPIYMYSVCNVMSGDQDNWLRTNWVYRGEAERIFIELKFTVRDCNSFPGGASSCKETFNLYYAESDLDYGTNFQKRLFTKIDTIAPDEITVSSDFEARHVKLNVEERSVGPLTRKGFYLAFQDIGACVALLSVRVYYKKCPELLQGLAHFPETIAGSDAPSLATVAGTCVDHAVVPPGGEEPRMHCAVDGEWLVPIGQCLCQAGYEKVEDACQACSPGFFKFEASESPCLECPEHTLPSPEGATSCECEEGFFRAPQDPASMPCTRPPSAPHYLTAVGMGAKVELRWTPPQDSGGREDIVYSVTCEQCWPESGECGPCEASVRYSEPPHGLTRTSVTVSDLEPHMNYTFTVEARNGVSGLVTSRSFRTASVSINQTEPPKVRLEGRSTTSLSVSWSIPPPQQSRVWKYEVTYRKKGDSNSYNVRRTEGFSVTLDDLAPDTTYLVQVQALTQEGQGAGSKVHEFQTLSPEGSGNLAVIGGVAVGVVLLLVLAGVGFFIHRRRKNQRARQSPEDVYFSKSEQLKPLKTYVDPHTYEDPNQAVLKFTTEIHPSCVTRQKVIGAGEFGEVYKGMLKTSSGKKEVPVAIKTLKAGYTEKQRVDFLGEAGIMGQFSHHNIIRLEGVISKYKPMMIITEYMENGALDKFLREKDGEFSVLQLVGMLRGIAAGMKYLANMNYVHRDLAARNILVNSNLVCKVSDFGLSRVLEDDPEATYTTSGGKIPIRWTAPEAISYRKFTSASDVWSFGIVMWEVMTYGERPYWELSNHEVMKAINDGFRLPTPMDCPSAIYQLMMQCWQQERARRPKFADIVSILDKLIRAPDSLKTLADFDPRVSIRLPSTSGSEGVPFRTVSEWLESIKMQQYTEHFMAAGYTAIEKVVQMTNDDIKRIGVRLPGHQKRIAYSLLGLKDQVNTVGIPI
Description: as §1

Chain of Vascular endothelial growth factor receptor 2 (P35968 whole entry): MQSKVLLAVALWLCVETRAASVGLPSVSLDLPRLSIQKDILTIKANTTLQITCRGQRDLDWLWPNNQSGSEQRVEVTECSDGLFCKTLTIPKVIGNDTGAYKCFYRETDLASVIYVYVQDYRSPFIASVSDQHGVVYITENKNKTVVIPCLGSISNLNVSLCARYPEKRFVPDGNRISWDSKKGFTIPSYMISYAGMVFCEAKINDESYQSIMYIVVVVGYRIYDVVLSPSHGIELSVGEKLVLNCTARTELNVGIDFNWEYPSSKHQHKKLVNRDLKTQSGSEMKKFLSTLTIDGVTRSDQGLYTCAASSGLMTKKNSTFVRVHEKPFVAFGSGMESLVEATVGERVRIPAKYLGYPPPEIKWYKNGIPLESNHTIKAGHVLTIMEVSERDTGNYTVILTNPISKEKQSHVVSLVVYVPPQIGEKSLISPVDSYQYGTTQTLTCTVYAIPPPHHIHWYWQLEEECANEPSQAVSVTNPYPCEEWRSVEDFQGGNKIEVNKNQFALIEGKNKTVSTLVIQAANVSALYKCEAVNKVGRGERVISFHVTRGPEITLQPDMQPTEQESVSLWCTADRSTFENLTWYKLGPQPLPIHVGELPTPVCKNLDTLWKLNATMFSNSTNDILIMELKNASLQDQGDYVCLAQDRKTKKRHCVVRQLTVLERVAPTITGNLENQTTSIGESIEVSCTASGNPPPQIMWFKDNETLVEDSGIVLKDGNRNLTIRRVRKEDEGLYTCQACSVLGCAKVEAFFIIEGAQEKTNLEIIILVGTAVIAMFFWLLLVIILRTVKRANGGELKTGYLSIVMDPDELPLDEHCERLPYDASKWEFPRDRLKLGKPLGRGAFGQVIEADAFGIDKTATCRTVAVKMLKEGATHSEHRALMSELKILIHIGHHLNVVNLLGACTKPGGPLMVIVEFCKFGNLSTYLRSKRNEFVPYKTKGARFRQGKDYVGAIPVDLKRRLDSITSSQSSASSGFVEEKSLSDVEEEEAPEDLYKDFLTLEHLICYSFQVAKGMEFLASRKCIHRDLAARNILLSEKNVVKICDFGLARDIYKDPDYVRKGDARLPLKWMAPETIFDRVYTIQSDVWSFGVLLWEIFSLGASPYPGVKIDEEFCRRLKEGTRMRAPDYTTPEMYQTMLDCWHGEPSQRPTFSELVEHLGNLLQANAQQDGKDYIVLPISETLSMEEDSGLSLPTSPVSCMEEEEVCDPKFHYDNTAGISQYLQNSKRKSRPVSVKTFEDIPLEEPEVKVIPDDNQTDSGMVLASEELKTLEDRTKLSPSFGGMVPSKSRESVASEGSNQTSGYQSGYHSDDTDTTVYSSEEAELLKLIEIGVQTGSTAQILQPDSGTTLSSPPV

SMILES: COc1cc2c(Nc3cccc(Cl)c3C)ncnc2cc1O[C@H]1CO[C@H]2[C@@H]1OC[C@@H]2OC [US9796704, Entry 76]
IC50 [1]: in the range around 525 nM

SMILES: COc1cc2c(Nc3ccc(Cl)c(Cl)c3)ncnc2cc1OCc1noc(C2CCCCN2)n1 (configuration not stated) [US9796704, Entry 145]
IC50 [1]: in the range around 525 nM | IC50 (Ephrin type-A receptor 2): in the range around 10500 nM

SMILES: COc1cc2c(Nc3ccc(Cl)c(Cl)c3)ncnc2cc1OCc1noc(C2CCN(C)CC2)n1 [US9796704, Entry 142]
IC50 [1]: in the range around 525 nM | IC50 (Ephrin type-A receptor 2): in the range around 525 nM

SMILES: COc1cc2c(Nc3ccc(Cl)c(Cl)c3)ncnc2cc1OCc1noc(CN(C)C)n1 [US9796704, Entry 138]
IC50 (Ephrin type-A receptor 2): in the range around 525 nM

SMILES: COc1cc2c(Nc3ccc(F)c(F)c3F)ncnc2cc1O[C@@H]1CO[C@@H]2[C@H]1OC[C@H]2F [US9796704, Entry 84]
IC50 [1]: in the range around 525 nM | IC50 (Ephrin type-A receptor 2): in the range around 525 nM

SMILES: COc1cc2c(Nc3ccc(Br)c(Cl)c3)ncnc2cc1O[C@H]1CO[C@@H]2CCO[C@H]12 [US9796704, Entry 77]
IC50 [1]: in the range around 525 nM

SMILES: COc1cc2c(Nc3ccc(Cl)c(Cl)c3)ncnc2cc1OCc1nc(CN(C)C)no1 [US9796704, Entry 139]
IC50 [1]: in the range around 525 nM | IC50 (Ephrin type-A receptor 2): in the range around 525 nM

SMILES: COc1cc2c(Nc3ccc(Cl)c(Cl)c3)ncnc2cc1OCC1CCC1 [US9796704, Entry 187]
IC50 [1]: in the range around 525 nM

SMILES: COc1cc2c(Nc3cc(Cl)c(Br)cc3F)ncnc2cc1OC[C@H]1CN2CCOCC2CO1 (some centres not stated) [US9796704, Entry 20]
IC50 [1]: < 50 nM

SMILES: COc1cc2c(Nc3ccc(Cl)c(Cl)c3)ncnc2cc1OCc1nc(CN2CCN(C)CC2)no1 [US9796704, Entry 140]
IC50 (Ephrin type-A receptor 2): in the range around 525 nM

SMILES: COc1cc2c(Nc3ccc(Cl)c(Cl)c3)ncnc2cc1OCc1noc(C2CCNCC2)n1 [US9796704, Entry 141]
IC50 [1]: in the range around 525 nM | IC50 (Ephrin type-A receptor 2): in the range around 525 nM

SMILES: COc1cc2c(Nc3ccc(Cl)c(Cl)c3)ncnc2cc1OCC1CCCO1 (configuration not stated) [US9796704, Entry 183]
IC50 [1]: in the range around 525 nM

SMILES: COc1cc(OC)c(Nc2ncnc3cc(O[C@@H]4CO[C@@H]5[C@H]4OC[C@H]5F)c(OC)cc23)cc1Cl [US9796704, Entry 135]
IC50 [1]: in the range around 525 nM | IC50 (Ephrin type-A receptor 2): in the range around 525 nM

SMILES: COc1cc2c(Nc3cc(Cl)c(Cl)cc3F)ncnc2cc1OC[C@@H]1CO[C@H]2[C@@H]1OC[C@@H]2OC [US9796704, Entry 48]
IC50 [1]: in the range around 10500 nM

SMILES: COc1cc2c(Nc3ccc(Cl)c(Cl)c3)ncnc2cc1OC1CCCC1 [US9796704, Entry 184]
IC50 [1]: in the range around 525 nM

SMILES: COc1cc2c(Nc3cccc(Br)c3)ncnc2cc1O[C@@H]1CO[C@@H]2[C@H]1OC[C@H]2F [US9796704, Entry 129]
IC50 [1]: in the range around 525 nM | IC50 (Ephrin type-A receptor 2): in the range around 525 nM

SMILES: COc1cc2c(Nc3ccc(Br)c(Cl)c3Cl)ncnc2cc1OC[C@@H]1CN2CCC[C@H]2CO1 [US9796704, Entry 39]
IC50 (Ephrin type-A receptor 2): in the range around 525 nM

SMILES: COc1cc2c(Nc3ccc(Cl)c(Cl)c3)ncnc2cc1OCc1cscn1 [US9796704, Entry 170]
IC50 [1]: in the range around 525 nM

SMILES: COc1cc2c(Nc3ccc(Cl)c(Cl)c3)ncnc2cc1OCc1noc(C2CCCCN2C)n1 (configuration not stated) [US9796704, Entry 154]
IC50 [1]: in the range around 525 nM | IC50 (Ephrin type-A receptor 2): in the range around 525 nM

SMILES: COc1cc2c(Nc3ccc(F)c(Cl)c3F)ncnc2cc1O[C@@H]1CO[C@@H]2[C@H]1OC[C@H]2F [US9796704, Entry 137]
IC50 [1]: in the range around 525 nM | IC50 (Ephrin type-A receptor 2): in the range around 525 nM

SMILES: COc1cc2c(Nc3ccc(Cl)c(Cl)c3)ncnc2cc1OCC1CC1 [US9796704, Entry 182]
IC50 [1]: in the range around 525 nM

SMILES: COc1cc2c(Nc3ccc(Br)c(Cl)c3Cl)ncnc2cc1O[C@@H]1CO[C@@H]2[C@H]1OC[C@H]2F [US9796704, Entry 103]
IC50 [1]: in the range around 525 nM | IC50 (Ephrin type-A receptor 2): in the range around 525 nM

SMILES: COc1cc2c(Nc3ccc(Cl)c(Cl)c3)ncnc2cc1OCc1noc(-c2ccc(C(F)(F)F)cc2)n1 [US9796704, Entry 167]
IC50 [1]: in the range around 525 nM

SMILES: COc1cc2c(Nc3ccc(Cl)c(Cl)c3)ncnc2cc1OC[C@H]1CN2CCC[C@@H]2CO1 [US9796704, Entry 31]
IC50 (Ephrin type-A receptor 2): < 50 nM

SMILES: COc1cc2c(Nc3cccc(Cl)c3)ncnc2cc1O[C@@H]1CO[C@@H]2[C@H]1OC[C@H]2F [US9796704, Entry 114]
IC50 [1]: in the range around 10500 nM | IC50 (Ephrin type-A receptor 2): in the range around 525 nM

SMILES: COc1cc2c(Nc3ccc(Br)c(Cl)c3)ncnc2cc1O[C@H]1CO[C@@H]2C3OC(C)(C)O[C@H]3O[C@H]12 (some centres not stated) [US9796704, Entry 80]
IC50 [1]: in the range around 525 nM | IC50 (Ephrin type-A receptor 2): in the range around 525 nM

SMILES: COc1cc2c(Nc3ccc(F)cc3)ncnc2cc1O[C@@H]1CO[C@@H]2[C@H]1OC[C@H]2F [US9796704, Entry 115]
IC50 [1]: in the range around 10500 nM

SMILES: COc1cc2c(Nc3cccc(Cl)c3F)ncnc2cc1O[C@H]1CO[C@H]2[C@@H]1OC[C@@H]2OC [US9796704, Entry 71]
IC50 [1]: in the range around 525 nM

SMILES: COc1cc2c(Nc3cccc(F)c3F)ncnc2cc1O[C@@H]1CO[C@@H]2[C@H]1OC[C@H]2F [US9796704, Entry 92]
IC50 [1]: in the range around 525 nM | IC50 (Ephrin type-A receptor 2): in the range around 525 nM

SMILES: COc1cc2c(Nc3cccc(Br)c3C)ncnc2cc1O[C@H]1CO[C@H]2[C@@H]1OC[C@@H]2OC [US9796704, Entry 75]
IC50 [1]: in the range around 525 nM

SMILES: COc1cc2c(Nc3ccc(Cl)c(Cl)c3)ncnc2cc1OCC1CN(C)CCO1 (configuration not stated) [US9796704, Entry 151]
IC50 [1]: in the range around 525 nM

SMILES: COc1cc2c(Nc3ccc(Cl)c(Cl)c3)ncnc2cc1OCc1c(-c2ccccc2)nn(C)c1Cl [US9796704, Entry 175]
IC50 [1]: in the range around 525 nM | IC50 (Ephrin type-A receptor 2): in the range around 525 nM

SMILES: COc1cc2c(Nc3ccc(Cl)c(Cl)c3)ncnc2cc1OCC1CCCCC1 [US9796704, Entry 186]
IC50 [1]: in the range around 525 nM

SMILES: COc1cc2c(Nc3cc(F)c(Br)c(Cl)c3)ncnc2cc1O[C@@H]1CO[C@@H]2[C@H]1OC[C@H]2F [US9796704, Entry 104]
IC50 (Ephrin type-A receptor 2): in the range around 525 nM

SMILES: COc1cc2c(Nc3ccc(Cl)c(Cl)c3)ncnc2cc1OCC1CN(C)CCCO1 (configuration not stated) [US9796704, Entry 155]
IC50 (Ephrin type-A receptor 2): in the range around 525 nM

SMILES: COc1cc2c(Nc3ccc(Cl)c(Cl)c3)ncnc2cc1OCc1noc(C)c1-c1ccccc1 [US9796704, Entry 161]
IC50 (Ephrin type-A receptor 2): in the range around 525 nM

SMILES: COc1cc2c(Nc3cc(Cl)ccc3Cl)ncnc2cc1O[C@@H]1CO[C@@H]2[C@H]1OC[C@H]2F [US9796704, Entry 118]
IC50 [1]: in the range around 525 nM

SMILES: COc1cc2c(Nc3ccc(Cl)c(Cl)c3)ncnc2cc1OCCC1CCCCC1 [US9796704, Entry 185]
IC50 [1]: in the range around 525 nM

SMILES: CCO[C@H]1CO[C@H]2[C@@H]1OC[C@@H]2Oc1cc2ncnc(Nc3ccc(Br)c(Cl)c3)c2cc1OC [US9796704, Entry 74]
IC50 [1]: in the range around 525 nM

Continued, values first:

IC50 [1]: in the range around 525 nM
SMILES: COc1cc2c(Nc3ccc(Cl)c(Cl)c3)ncnc2cc1OCc1nc(-c2ccc(O)c(C(N)=O)c2)cs1 [US9796704, Entry 200]

IC50 [1]: in the range around 525 nM
SMILES: COc1cc2c(Nc3ccc(Cl)c(Cl)c3)ncnc2cc1OCc1nc(CN2CCN(C)CC2)cs1 [US9796704, Entry 207]

IC50 [1]: in the range around 525 nM
SMILES: COc1cc2c(Nc3ccc(Cl)c(Cl)c3)ncnc2cc1OCCC1OCCO1 [US9796704, Entry 188]

IC50 [1]: in the range around 525 nM
SMILES: COc1cc2c(Nc3ccc(Cl)c(Cl)c3)ncnc2cc1OCc1csc(C2CCN(C)CC2)n1 [US9796704, Entry 214]

IC50 [1]: in the range around 10500 nM
SMILES: CCN1CCOC(COc2cc3ncnc(Nc4ccc(Cl)c(Cl)c4)c3cc2OC)C1 (configuration not stated) [US9796704, Entry 212]

IC50 [1]: in the range around 525 nM
SMILES: COc1cc2c(Nc3ccc(Cl)c(Cl)c3)ncnc2cc1OCCC1OCCCO1 [US9796704, Entry 189]

IC50 [1]: in the range around 525 nM
SMILES: COc1cc2c(Nc3ccc(Cl)c(Cl)c3)ncnc2cc1OCc1nc(N(C)C)no1 [US9796704, Entry 206]

IC50 [1]: in the range around 525 nM
SMILES: CCN1CCCCC1c1nc(COc2cc3ncnc(Nc4ccc(Cl)c(Cl)c4)c3cc2OC)no1 (configuration not stated) [US9796704, Entry 219]

IC50 [1]: in the range around 525 nM
SMILES: COc1cc2c(Nc3ccc(Cl)c(Cl)c3)ncnc2cc1OCCN1CCCC1 [US9796704, Entry 191]

IC50 [1]: in the range around 525 nM
SMILES: COc1cc2c(Nc3ccc(Cl)c(Cl)c3)ncnc2cc1OCc1nc(CN2CCOCC2)cs1 [US9796704, Entry 209]

IC50 [1]: in the range around 525 nM
SMILES: COc1cc2c(Nc3ccc(Cl)c(Cl)c3)ncnc2cc1OCCN1CCCCC1 [US9796704, Entry 192]

IC50 [1]: in the range around 525 nM
SMILES: COc1cc2c(Nc3ccc(Cl)c(Cl)c3)ncnc2cc1OCC(=O)N1CCOCC1 [US9796704, Entry 195]

IC50 [1]: in the range around 525 nM
SMILES: COc1cc2c(Nc3ccc(Cl)c(Cl)c3)ncnc2cc1OCc1nc(-c2ccccn2)cs1 [US9796704, Entry 202]

IC50 [1]: in the range around 525 nM
SMILES: COc1cc2c(Nc3ccc(Cl)c(Cl)c3)ncnc2cc1OCc1nc2c(s1)CNCC2 [US9796704, Entry 208]

IC50 [1]: in the range around 525 nM
SMILES: COc1cc2c(Nc3ccc(Cl)c(Cl)c3)ncnc2cc1OCc1nc(-c2cccnc2)cs1 [US9796704, Entry 201]

IC50 [1]: in the range around 525 nM
SMILES: COc1cc2c(Nc3ccc(Cl)c(Cl)c3)ncnc2cc1OCc1csc(C2CCNCC2)n1 [US9796704, Entry 213]

IC50 [1]: in the range around 525 nM
SMILES: COc1cc2c(Nc3ccc(Cl)c(Cl)c3)ncnc2cc1OCCN1CCOCC1 [US9796704, Entry 190]

IC50 [1]: in the range around 525 nM
SMILES: COc1cc2c(Nc3ccc(Cl)c(Cl)c3)ncnc2cc1OCc1nc(N2CCOCC2)no1 [US9796704, Entry 205]

IC50 [1]: in the range around 525 nM
SMILES: COc1cc2c(Nc3ccc(Cl)c(Cl)c3)ncnc2cc1OCc1nc(N2CCN(C(=O)OC(C)(C)C)CC2)no1 [US9796704, Entry 215]
